Measured values taken from US20070293398A1, “Method for Controlling Coniferous Plants” (BASF Aktiengesellschaft, priority 2004, published 2007).

Experiments:
[1] = test system: wildling pine of the variety Loblolly (Pinus taeda); assay: Field experiment Site 4: wildling Loblolly pine control, damage rating 0 to 100%; assay type: in vivo; details: field Site 4, combined with phenyluracil I.1.4
Procedure: The evaluation for the damage caused by the chemical compositions was carried out using a scale from 0 to 100%, compared to the untreated control plants. Here, 0 means no damage and 100 means complete destruction of the plants.

[2] = test system: pine species (loblolly pine); assay: Field experiment Site 2: percent brownout of pine species following May application; assay type: in vivo, Pinus taeda; details: Site 2, May application, 0.840 kg a.i./ha, 1 WAT
Procedure: For the following experiment the phenyluracil of formula I and optionally the herbicide B were applied as an aqueous spray liquor. Phenyluracil I.1.4 (phenyluracil of formula I) was used as emulsifiable concentrate (0.120 kg a.i./L). Imazapyr (herbicide B) was used as an emulsifiable concentrate (26.7% by weight; Chopper®/BASF Corporation). Glyphosate (herbicide B) was used as a soluble concentrate (53.8% by weight; Accord® Concentrate/Dow AgroScience) Methylated seed oil (MSO) was also added to the spray liquor in amounts of 25.0% volume/volume as a standard spray adjuvant. Water was used as the carrier. Spray carrier volume was 65 L/ha.
The spray liquor had the following general recipe (based on a spray volume of 65 L/ha):
Herbicide treatments were applied in the spring using a pole sprayer with a single KLC-9 flood tip spraying from a height of 335 cm. This application technique was used to simulate operational aerial applications as closely as practical. Treatment plots were 9×18 m.
Woody vegetation was assessed at treatment and in the fall of the year of treatment and one year after treatment (one and two growing seasons after treatment). The most common woody species on the site at treatment included loblolly pine (Pinus taeda), southern red oak (Quercus falcata), water oak (Quercus nigra) and Vaccinium spp. […]

Row | Compound | effect of addition on control of wildling pine (in words) [1] | brownout of pine species [2]
1 | COc1c(Cl)ccc(Cl)c1C(=O)O [dicamba] | improved the control | –
2 | CC(C)C1(C)N=C(c2ncccc2C(=O)O)NC1=O (centres unmarked) [imazapyr] | – | 2%
